Assay results: US20130040291A1, “Detection and Quantification of Cellular Stress Response Resolution Pathway Expression and Functionality and the Effects of Agents or Conditions Thereupon” (priority 2011, published 2013)

How the values were obtained:
CDNR4 cells [1] = experiment: Midway cloning efficiency (mCE), pre-calibrated stress conditions pro-survival pathway function; type: cell-based, murine; conditions: ENU 20 micrograms/ml 1 hour, 2 weeks (day 14) post-exposure
From the text: mCE procedure #2 for cells that grow attached to a surface or basement membrane and/or that have the following growth characteristics when grown in tissue culture. The second method is novel and is recommended for use with epithelial cells, cells that form tight junctions, cells that produce mucinous material during in vitro cell culture, and/or cells that attach to a basement membrane. The latter characteristics are typical of epithelial cells but are not unique to this cell type alone.
This procedure is used to obtain an accurate cell count in vials of very dilute cells that are used for plating cloning efficiency plates. […]
For this procedure, the cell aliquot that was set aside during the initial cell counting is divided into 2 equal groups and diluted as follows. […] Approximately 12 to 15 hours later, the average number of cells per milliliter on the 6 or 12 well plates for both groups A and B is determined using light microscopy to visualize and count the cells. […] Viable cells are counted; dead cells or cell fragments are not counted. […] The final cloning efficiency is determined using the formula presented above (see phase 3 step 5). […]

CDNR4 cells [2] = experiment: Determination of the SRID-50% level of 6-TG (calibrated stress conditions); type: cell-based, murine
Experimental: The calibrated stress conditions and the SRID-x % level are determined ideally using parental, control, or vehicle-exposed cells. This portion of the assay requires that several variables, including cell plating density, calibrated stress conditions level, and duration of stress conditions exposure be optimized simultaneously. These variables are interdependent such that each affects the outcome of the other, thereby making this portion of the assay one of the most critical. To achieve high sensitivity for detection of assay endpoints, it is important that the maximum number of cells be evaluated; however, optimal calibrated stress conditions are achieved at relatively low cell plating densities. In addition, cell plating densities and the SKID-x % level of stress inducing agent chosen for use in the assay must be such that fewer than one positive endpoint per well occurs in the assay. Using cell survival as an example, if multiple surviving cell clones are identified in the same well(s) during an experiment, then the cell plating density must be reduced and/or the SRID-x % level must be increased so that the frequency of occurrence of surviving clones is reduced to less than one per well. Thus, optimization of these variables is necessary.
Pilot studies that evaluate a range of cell plating densities and a range of calibrated stress conditions levels for the stress inducing agent of choice are used and are applied to untreated, control or parental cells. It is advisable to use a low plating density that results in rapid expression of stress resolution pathways (within 3 to 4 days where possible), or as quickly as possible after calibrated stress conditions exposure. In spite of potentially significant differences between cells of different types from different tissues and from different species, preliminary results from the SR assay support the conclusion that the optimal plating density for many cell types falls within a predictable range. […] These values can serve as starting points for empirical determination of the optimal cell plating density for the cells of interest to be used in the assay.
After estimating the optimal cell plating density, dose response curves are generated for the calibrated stress conditions agent of interest. For experiments in which cell survival is the phenotype of interest, work with the assay completed to date supports the conclusion that calibrated stress conditions levels that reduce expression of pro-survival pathways to a level that results in survival of one or fewer clones in 50% of the wells of a 96 well plate (defined as the SRID-50%) is the optimal level for assessment of damage avoidance pro-survival pathways. Use of these levels also results in a sufficiently robust expression of damage tolerance paths to make it possible to evaluate differences or changes in expression of these pathways between cell types and/or between differing exogenous exposures. Because cell plating density and level of calibrated stress inducing agent are inter-dependent, it may be necessary to perform several pilot studies using differing cell plating densities and a range of stress-response inducing levels to find the optimal combination of use with the cell type of interest in the assay.
There are two limits associated with Poisson distribution principles that must be considered in selecting the SRID-x % level of stress inducing agent. First, stress induction levels that result in a response frequency, for the response type of interest, that is near or equal to 100% of the sites being evaluated should be avoided and the same considerations are true for stress induction levels resulting in responses frequencies near or equal to 0%. The SR assay cannot accurately quantify response frequencies near 100% or near 0%, and this limitation forms the one of the factors affecting the selection of the SRID-x % level. […]

For `CCN(N=O)C(N)=O` [ENU, ethylnitrosourea], the “mCE (midway cloning efficiency)” value (CDNR4 cells [1]) was 34.2%, the “SRID-50% of ENU-exposed cells” value (CDNR4 cells [2]; ENU 20 micrograms/ml 1 hour, 2 weeks earlier, 600 cells per well, stress agent 6-TG) was 2.5 micrograms/ml and the “reduction in the functionality of pro-survival cellular stress response pathways” value (CDNR4 cells [2]; ENU-exposed vs unexposed CDNR4 cells, from SRID-50% levels) was 20 fold. The “SRID-50% level of ENU-exposed CDNR4 cells” value (CDNR4 cells [2]; pre-exposure 20 micrograms ENU 1 hour, tested two weeks later, 6-TG for 4 days) was 2.5 micrograms 6-TG.
